pEC50: −log10 of the molar value. “Also recorded” adds a separate entry of the source. Read-outs that look alike come from different tables or passages of the source.
Tests used:
[1] = system: A375; experiment: Cell viability, A375 melanoma cell line (single agents and combinations); type: cell-based, human; conditions: for combination effect with PLX4032 (Zelboraf, vemurafenib): B-Raf-mutant melanoma cell line A375
[2] = system: p53; experiment: p53 stabilization in AML cells (Western blot, dose and time); type: cell-based; conditions: AML p53 wild type cell lines, 0.1-10.0 μM, 24, 48 or 72 hrs
Source text: (§2) Lysates were subjected to SDS-PAGE and probed by Western blotting with antibodies specific to MDM2, p53, p21, and β-Actin.

[3] = system: p53-pathway; experiment: mRNA expression of p21, MDM2, Puma, Bax, Gadd45a in Molm13 and Oci/AML3; type: cell-based; conditions: Molm13 and Oci/AML3, 0.1-10.0 μM
Source text: Expression levels were normalized to GAPDH mRNA expression levels.

[4] = system: Mel-Ho (V600E); experiment: Combination with PLX4032 in Mel-Ho; type: cell-based
[5] = system: Molm13, OCI/AML3, Molm14, HL60 and ML2 cell lines; experiment: Apoptosis assay of AML cell lines (DAPI / Annexin-V FACS); type: cell-based; conditions: p53 wild type AML cell lines, 1.0, 5.0 or 10.0 μM
Procedure: (§1) Cells were probed with DAPI and a FITC-labeled anti-Annexin-V antibody. FACS analysis was performed to determine the number of viable cells and the number of cells in early apoptosis, late apoptosis and undergoing necrosis and the results were plotted.

[6] = system: MV4-11; experiment: WST-1 / MTT cell viability, MV4-11
Procedure: Initially, various MV4-11 cell numbers were plated and evaluated 3-7 days later to determine the optimal number of cells to be plated and treatment duration.
Cells were evaluated for viability by WST-1 assay or MTT assay 3-7 days after beginning treatment.
(§3) A drug combination index plot was used to assess the synergistic, additive, or antagonistic properties of each combination treatment. […] Combination index (CI) values were calculated using the CompuSyn software. The data were expressed as log(CI).

[7] = system: primary AML cell line; experiment: Apoptosis assay on primary AML cell lines; type: cell-based; conditions: primary AML cells, 1.0, 5.0 or 10.0 μM
Procedure: as §1

[8] = system: MOLT-3; experiment: WST-1 / MTT cell proliferation assay, MOLT-3; type: cell-based, human
Procedure: All media were supplemented with 10% (v/v) fetal calf serum, 100 units penicillin and 100 μg/ml streptomycin at 37° C. and 5% CO2.
One day prior to assaying, cells were trypsinized, counted and seeded at pre-determined densities in 96-well plates as follows: MCF-7, 5000 cells/well/200 μl; MOLT-3, 30,000 cells/well/200 μl. […] The WST-1 variant of the MTT assay was used to measure cell viability according to the manufacturer's protocol. WST-1 is a cell-impermeable, sulfonated tetrazolium salt that can be used to examine cell viability without killing the cells.
Initially, various MOLT-3 cell numbers were plated and evaluated 3-7 days later to determine the optimal number of cells to be plated and treatment duration.
Cells were evaluated for viability by WST-1 assay or MTT assay 3-7 days after beginning the sequential treatment (FIGS. 33 and 34).
Cells were evaluated for viability by WST-1 assay or MTT assay 3-7 days after beginning treatment with rituximab (FIGS. 68B and 69B) or romidepsin (FIGS. 71B and 72B).

[9] = system: DOHH-2; experiment: WST-1 / MTT cell viability, DOHH-2; type: cell-based, human
Procedure: Initially, various DOHH-2 cell numbers were plated and evaluated 3-7 days later to determine the optimal number of cells to be plated and treatment duration.
as §3

[10] = system: primary AML cell line; experiment: Clonogenicity assay on primary AML cell lines; type: cell-based; conditions: 0.1-1.0 μM
Procedure: A clonogenicity assay was then performed and the number of clonies was counted.

[11] = system: p53-pathway; experiment: Western blot of p53-pathway, primary AML cells; type: cell-based; conditions: 1.0 or 5.0 μM
Source text: as §2

[12] = system: p53-pathway; experiment: Western blot of p53-pathway, Molm13, OCI/AML3, Molm14 and ML2 cell lines; type: cell-based; conditions: Molm13, OCI/AML3, Molm14 and ML2, 1.0 μM
Procedure: The Molm13, OCI/AML3, Molm14 and ML2 cell lines were treated with vehicle or 1.0 μM Aileron peptide (FIG. 1B).

[13] = system: Molm13, OCI/AML3, Molm14, HL60 and ML2 cell lines; experiment: Clonogenicity assay on AML cell lines; type: cell-based; conditions: p53 wild type cell lines, 1.0 μM
Procedure: A clonogenicity assay was then performed and the number of clonies was counted (FIG. 6).

[14] = system: MCF-7; experiment: CyQUANT cell viability, MCF-7; type: cell-based, human; conditions: MCF-7, sequential treatment, 72 hrs
Procedure: Cells were also evaluated for viability using the CyQUANT method after beginning treatment (FIGS. 78A and 79A). Cells were evaluated for viability using the CyQUANT method after beginning the simultaneous treatments (FIGS. 78B and 79B). […] The data were expressed as log(CI).
The anticancer activity of the combination treatment was assessed based on the order of addition of the drugs.

[15] = MV4-11, sequential treatment, 72 hrs
[16] = DOHH-2, sequential treatment, 72 hrs

CC(=O)N[C@@H](CC(C)C)C(=O)N[C@H](C(=O)N[C@@H](Cc1ccccc1)C(=O)N[C@]1(C)CCCCCCC=CCCC[C@@](C)(C(=O)N[C@@H](C)C(=O)N[C@@H](C)C(=O)N[C@@H](C)C(=O)N[C@@H](C)C(=O)N[C@@H](C)C(=O)N[C@H](C)C(N)=O)NC(=O)[C@H](CC(C)C)NC(=O)[C@H](CCC(N)=O)NC(=O)[C@H](C)NC(=O)[C@H](Cc2c[nH]c3ccccc23)NC(=O)[C@H](Cc2ccc(O)cc2)NC(=O)[C@H](CCC(=O)O)NC1=O)[C@@H](C)O [Aileron peptide 1]
combination effect with PLX4032 (Zelboraf, vemurafenib) [1]: synergy
combination effect with PLX4032 (Zelboraf, vemurafenib) ([1]; listed as AP1): additive or better complimentarity
pEC50 ([1]; single agent, read-out: EC50 on A375 cells): 7.15
p53 stabilization [2]: stabilizes p53 in a time and dose dependant manner
activation of the p53-pathway (mRNA normalized to GAPDH) [3]: activates the p53-pathway
combination effect with PLX4032 (Zelboraf) [4]: synergy
apoptotic cell death [5]: induces apoptotic cell death
order of addition: effect on cell growth, AP1 and Ara-C [6, 15]: suppressed MV4-11 cell growth with or without Ara-C
order of addition: effect on cell growth, AP1 and azacitidine [6, 15]: suppressed MV4-11 cell growth with or without azacitidine
order of addition: effect on cell growth, AP1 and decitabine [6, 15]: suppressed MV4-11 cell growth with or without decitabine
order of addition: effect on cell growth, AP1 and midostaurin [6, 15]: suppressed MV4-11 cell growth with or without midostaurin
combination effect of AP1 with Ara-C ([6]; MV4-11, listed as AP1): complementary in vitro anticancer activity; also recorded: mostly additive with some degree of synergy; also recorded: additive or better complimentarity
combination effect of AP1 with azacitidine ([6]; MV4-11, listed as AP1): complementary in vitro anticancer activity; also recorded: mostly additive with some synergy; also recorded: additive or better complimentarity
combination effect of AP1 with decitabine ([6]; MV4-11, listed as AP1): complementary in vitro anticancer activity; also recorded: mostly additive; also recorded: additive or better complimentarity
combination effect of AP1 with midostaurin ([6]; MV4-11, listed as AP1): complementary in vitro anticancer activity; also recorded: mostly synergistic; also recorded: additive or better complimentarity
apoptotic cell death [7]: induces apoptotic cell death
combination effect of AP1 with romidepsin [8]: enhances Aileron peptide 1 inhibition of cancer cell proliferation and cell killing
combination effect of AP1 with romidepsin ([8]; listed as AP1): complementary in vitro anticancer activity; also recorded: mostly additive complimentarity
combination effect of AP1 with rituximab ([9]; DOHH-2 (figure legends), listed as AP1): complementary in vitro anticancer activity; also recorded: additive or better complimentarity
order of addition: effect on cell growth, AP1 and CTX [9, 16]: suppressed DOHH-2 cell growth with or without CTX
order of addition: effect on cell growth, AP1 and VCR [9, 16]: suppressed DOHH-2 cell growth with or without VCR
combination effect of AP1 with CTX ([9]; DOHH-2, listed as AP1): complementary in vitro anticancer activity; also recorded: synergistic; also recorded: additive or better complimentarity
combination effect of AP1 with VCR ([9]; DOHH-2, listed as AP1): complementary in vitro anticancer activity; also recorded: mostly synergistic; also recorded: additive or better complimentarity
pEC50 ([9]; single agent, read-out: EC50 on DOHH-2 cells): 7.22
clonogenic capacity [10]: inhibited its clonogenic capacity to a higher extent
activation of the p53-pathway [11]: activates the p53-pathway
activation of the p53-pathway [12]: activates the p53-pathway
clonogenic capacity [13]: inhibited their clonogenic capacity
order of addition: effect on cell growth, AP1 and palbociclib [14]: suppressed MCF-7 cell growth with or without palbociclib
